Laboratory results as given in patent publication US8598145B2, “Mitochondrially delivered anti-cancer compounds” (priority 2008, dated 2013).

How the values were obtained:
Assay type in all cases: cell-based, human
[1] = test system: Bax/Bak double knockout Jurkat cell line; assay: Apoptosis assay of FIG. 3B; settings: α-TOS 50 μM, MitoVES 5 μM
Protocol: 3B—Parental, Bax^−/− and […] Jurkat cells were exposed to α-TOS (T) at 50 μM and MitoVES (M) 5 μM, and apoptosis assessed.
Toxicity of α-TOS, VE11S (“VES”), MitoVE3S, MitoVE5S, MitoVE7S, MitoVE9S, MitoVE11S (“MitoVES”), MitoVE11AE (“MitoVEAE”), MitoVE11F (“MitoVEF”), MitoVE11M (“MitoVEM”), and VES4TPP towards cancer cells was assessed on the basis of IC50, as detailed in Turanek, J., et al. ((2008). Liposomal formulation of vitamin E analogs as an efficient and selective anti-cancer treatment. Clin. Cancer Res. (submitted)). Apoptosis was assessed using the Annexin V method (Weber, T. et al. Mitochondria play a central role in apoptosis induced by α-tocopheryl succinate, an agent with anticancer activity. Comparison with receptor-mediated pro-apoptotic signaling. Biochemistry 42, 4277-4291 (2003)) and dissipation of the mitochondrial inner transmembrane potential was estimated using the polychromatic probe JC-1 (Molecular Probes) (Weber, T. et al. Mitochondria play a central role in apoptosis induced by α-tocopheryl succinate, an agent with anticancer activity. Comparison with receptor-mediated pro-apoptotic signaling. Biochemistry 42, 4277-4291 (2003)).

adherent MCF7 cells [2] = assay: Drug induced cell death in adherent MCF7 cells (FIG. 8); settings: 5 μM MitoVES, 50 μM α-TOS or 10 μM parthenolide
Protocol: (§1) Adherent MCF7 cells and the corresponding mammosphere cells (MS) were cultured and assessed for morphological changes by microscopy (A) and for expression levels of markers as indicators of “sternness” by RT-PCR (B) and flow cytometry (C), including the expression of CD44 and CD24 (D). The adherent MCF7 cells (E) and the MS cells (F) were treated with 5 μM MitoVES, 50 μM α-TOS or 10 μM parthenolide and assessed for their sensitivity to drug induced cell death. […] Adherent MCF7 cells (I) and MS cells (J) were treated for 3 h with α-TOS (50 μM) or MitoVES homologues containing different lengths in the aliphatic side chain (5 μM each, either 11, 7 or 5 carbon chain in length) and the treated cells assessed for production of reactive oxygen species (ROS) by flow cytometry.

adherent MCF7 cells [3] = assay: ROS production by flow cytometry, adherent cells (FIG. 8); settings: 3 h; α-TOS 50 μM, MitoVES homologues 5 μM
Protocol: as §1
Cellular ROS were detected indirectly by flow cytometry and directly by electron paramagnetic resonance (EPR) spectroscopy, following treatment of cells with α-TOS as indicated in the Legend to Figures. […] For indirect evaluation, cells were treated with α-TOS and reacted with dihydrodichlorofluorescein diacetate (DCF; Molecular Probes) for 30 min, and scored by flow cytometry for cells with high fluorescence, which was evaluated on the bases on increase in mean fluorescence intensity. […]

SMILES | apoptosis in Bax/Bak double deficient Jurkat cells [1] | sensitivity of adherent MCF7 cells to drug induced cell death (adherent MCF7 cells [2]) | ROS production in adherent MCF7 cells (adherent MCF7 cells [3])
Cc1c(C)c2c(c(C)c1OC(=O)CCC(=O)[O-])CCC(C)(CCCCCCCCCCC[P+](c1ccccc1)(c1ccccc1)c1ccccc1)O2 (stereo not drawn) [MitoVE11S] | extremely resistant | more so | greater ROS accumulation
Cc1c(C)c2c(c(C)c1OC(=O)CCC(=O)O)CC[C@@](C)(CCC[C@H](C)CCC[C@H](C)CCCC(C)C)O2 [α-TOS, α-tocopheryl succinate, reference compound] | still mediates some level of killing | sensitive to killing | significant production of ROS
